This test concerns the target human kinase Mps-1 (N-terminally GST-tagged human full length recombinant Mps-1 kinase) (Homo sapiens (Human), UniProt P33981). The test is described as follows: Mps-1 Kinase Assay (TR-FRET). It counts as biochemical. The conditions noted are these: 10 μM ATP, 1 μM biotinylated peptide substrate, 60 min at 22° C., read-out: Mps1 IC50. How it is done:
The human kinase Mps-1 phosphorylates a biotinylated substrate peptide. Detection of the phosphorylated product is achieved by time-resolved fluorescence resonance energy transfer (TR-FRET) from Europium-labelled anti-phospho-Serine/Threonine antibody as donor to streptavidin labelled with cross-linked allophycocyanin (SA-XLent) as acceptor. Compounds are tested for their inhibition of the kinase activity.
N-terminally GST-tagged human full length recombinant Mps-1 kinase (purchased from Invitrogen, Karslruhe, Germany, cat. no PV4071) was used. As substrate for the kinase reaction a biotinylated peptide of the amino-acid sequence […] (C-terminus in amide form, purchased from Biosynthan GmbH, Berlin) was used.
The concentration of Mps-1 in the assay was adjusted to the activity of the enzyme lot and was chosen appropriate to have the assay in the linear range, typical enzyme concentrations were in the range of about 1 nM (final conc. in the 5 μl assay volume).
The resulting mixture was incubated 1 h at 22° C. to allow the binding of the phosphorylated peptide to the anti-phospho(Ser/Thr)-Europium-antibody. Subsequently the amount of phosphorylated substrate was evaluated by measurement of the resonance energy transfer from the Europium-labelled anti-phospho(Ser/Thr) antibody to the Streptavidin-XLent.
(In general: In TR-FRET formats the signal depends on donor and acceptor labels being close together.)
Chain of human kinase Mps-1 (N-terminally GST-tagged human full length recombinant Mps-1 kinase) (P33981 whole entry): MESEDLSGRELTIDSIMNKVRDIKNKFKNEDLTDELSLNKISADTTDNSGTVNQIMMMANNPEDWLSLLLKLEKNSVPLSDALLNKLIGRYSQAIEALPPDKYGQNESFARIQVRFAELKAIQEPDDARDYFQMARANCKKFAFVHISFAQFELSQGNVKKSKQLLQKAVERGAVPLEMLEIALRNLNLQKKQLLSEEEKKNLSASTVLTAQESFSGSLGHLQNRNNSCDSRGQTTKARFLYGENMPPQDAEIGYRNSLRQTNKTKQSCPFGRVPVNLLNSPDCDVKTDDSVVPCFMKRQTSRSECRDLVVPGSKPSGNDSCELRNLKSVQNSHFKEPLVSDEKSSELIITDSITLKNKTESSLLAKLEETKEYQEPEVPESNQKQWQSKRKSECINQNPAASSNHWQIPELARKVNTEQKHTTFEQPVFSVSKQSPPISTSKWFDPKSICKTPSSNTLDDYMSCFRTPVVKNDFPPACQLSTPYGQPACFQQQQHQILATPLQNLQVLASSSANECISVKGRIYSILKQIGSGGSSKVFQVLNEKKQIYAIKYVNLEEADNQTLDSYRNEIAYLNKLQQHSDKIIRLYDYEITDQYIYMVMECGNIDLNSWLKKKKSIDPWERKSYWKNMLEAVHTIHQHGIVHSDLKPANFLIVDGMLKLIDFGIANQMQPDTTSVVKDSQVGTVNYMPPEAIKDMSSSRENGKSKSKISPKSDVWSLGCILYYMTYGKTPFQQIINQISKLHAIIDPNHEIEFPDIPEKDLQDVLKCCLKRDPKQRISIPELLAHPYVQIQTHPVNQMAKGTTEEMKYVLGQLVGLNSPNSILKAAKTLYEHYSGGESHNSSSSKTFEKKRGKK
On to `C/C=C/c1cn2c(-c3ccc(C(=O)NC4CC4)cc3)cnc2c(NCC(C)C)n1` [Example 1-1, N-cyclopropyl-4-{8-[(2-methylpropyl)amino]-6-[(1E)-prop-1-en-1-yl]imidazo[1,2-a]pyrazin-3-yl}benzamide], for which the 50% inhibitory concentration (IC50) (usually the point on the concentration scale where inhibition reaches its midpoint) was 6.2 nM. In the case of `COCc1cccc(-c2cn3c(-c4ccc(C(=O)NC5CC5)cc4)cnc3c(NCC(C)C)n2)c1` [Example 1-2, N-cyclopropyl-4-{6-[3-(methoxymethyl)phenyl]-8-[(2-methylpropyl)amino]imidazo[1,2-a]pyrazin-3-yl}benzamide] it was 7.1 nM. On to `CC(C)CNc1nc(C2=CCCCC2)cn2c(-c3ccc(C(=O)NC4CC4)cc3)cnc12` [Example 1-3, 4-{6-(cyclohex-1-en-1-yl)-8-[(2-methylpropyl)amino]imidazo[1,2-a]pyrazin-3-yl}-N-cyclopropylbenzamide], for which the half-maximal inhibitory concentration (IC50) was 4.2 nM. As for `C/C=C(/C)c1cn2c(-c3ccc(C(=O)NC4CC4)cc3)cnc2c(NCC(C)C)n1` [Example 1-4, 4-{6-[(2Z)-but-2-en-2-yl]-8-[(2-methylpropyl)amino]imidazo[1,2-a]pyrazin-3-yl}-N-cyclopropylbenzamide], the IC50 came out at 1.9 nM. Take `CC(C)CNc1nc(C2CC2)cn2c(-c3ccc(C(=O)NC4CC4)cc3)cnc12` [Example 1-5, N-cyclopropyl-4-{6-cyclopropyl-8-[(2-methylpropyl)amino]imidazo[1,2-a]pyrazin-3-yl}benzamide]: the IC50 amounted to 6.2 nM. `CC(C)CNc1nc(C2CC=CCC2)cn2c(-c3ccc(C(=O)NC4CC4)cc3)cnc12` (centres unmarked) [Example 1-6, 4-{6-(cyclohex-3-en-1-yl)-8-[(2-methylpropyl)amino]imidazo[1,2-a]pyrazin-3-yl}-N-cyclopropylbenzamide]: the concentration for half-maximal inhibition (IC50) was 2.8 nM. As for `C/C=C(\C)c1cn2c(-c3ccc(C(=O)NC4CC4)cc3)cnc2c(NCC(C)C)n1` [Example 1-7, 4-{6-[(2E)-but-2-en-2-yl]-8-[(2-methylpropyl)amino]imidazo[1,2-a]pyrazin-3-yl}-N-cyclopropylbenzamide], the figure is 4.1 nM; as for `C=C(C)c1cn2c(-c3ccc(C(=O)NC4CC4)cc3)cnc2c(NCC(C)C)n1` [Example 1-9, N-cyclopropyl-4-{8-[(2-methylpropyl)amino]-6-(prop-1-en-2-yl)imidazo[1,2-a]pyrazin-3-yl}benzamide], 5.8 nM. For the compound `C/C=C/c1cn2c(-c3ccc(C(=O)NC4CC4)c(Cl)c3)cnc2c(NCC(C)C)n1` [Example 1-10, 2-chloro-N-cyclopropyl-4-{8-[(2-methylpropyl)amino]-6-[(1E)-prop-1-en-1-yl]imidazo[1,2-a]pyrazin-3-yl}benzamide], the IC50 is 72.3 nM. In the case of `C/C=C/c1cn2c(-c3ccc(C(=O)NC4CC4)c(Cl)c3)cnc2c(NCCC(F)(F)F)n1` [Example 1-11, 2-chloro-N-cyclopropyl-4-{6-[(1E)-prop-1-en-1-yl]-8-[(3,3,3-trifluoropropyl)amino]imidazo[1,2-a]pyrazin-3-yl}benzamide] it was 34.3 nM.

For the compound `C/C=C/c1cn2c(-c3ccc(C(=O)NC4CC4)c(Cl)c3)cnc2c(NCC(C)(C)O)n1` [Example 1-12, 2-chloro-N-cyclopropyl-4-{8-[(2-hydroxy-2-methylpropyl)amino]-6-[(1E)-prop-1-en-1-yl]imidazo[1,2-a]pyrazin-3-yl}benzamide], the IC50 is 132 nM. In the case of `C/C=C/c1cn2c(-c3ccc(C(=O)NC4CC4)c(Cl)c3)cnc2c(NCc2ccnn2C)n1` [Example 1-13, 2-chloro-N-cyclopropyl-4-(8-{[(1-methyl-1H-pyrazol-5-yl)methyl]amino}-6-[(1E)-prop-1-en-1-yl]imidazo[1,2-a]pyrazin-3-yl)benzamide] it was 70.6 nM. In the case of `C/C=C/c1cn2c(-c3ccc(C(=O)NC4CC4)c(F)c3)cnc2c(NCC(C)C)n1` [Example 1-14, N-cyclopropyl-2-fluoro-4-{8-[(2-methylpropyl)amino]-6-[(1E)-prop-1-en-1-yl]imidazo[1,2-a]pyrazin-3-yl}benzamide] it was 38.7 nM. As for `C/C=C/c1cn2c(-c3ccc(C(=O)NC4CC4)c(F)c3)cnc2c(NCCC(F)(F)F)n1` [Example 1-15, N-cyclopropyl-2-fluoro-4-{6-[(1E)-prop-1-en-1-yl]-8-[(3,3,3-trifluoropropyl)amino]imidazo[1,2-a]pyrazin-3-yl}benzamide], the figure is 15.4 nM; as for `C/C=C/c1cn2c(-c3ccc(C(=O)NC4CC4)c(F)c3)cnc2c(NCC(C)(C)O)n1` [Example 1-16, N-cyclopropyl-2-fluoro-4-{8-[(2-hydroxy-2-methylpropyl)amino]-6-[(1E)-prop-1-en-1-yl]imidazo[1,2-a]pyrazin-3-yl}benzamide], 46.5 nM.

In the case of `C/C=C/c1cn2c(-c3ccc(C(=O)NC4CC4)c(F)c3)cnc2c(NCC2CCCO2)n1` (centres unmarked) [Example 1-17, N-cyclopropyl-2-fluoro-4-{6-[(1E)-prop-1-en-1-yl]-8-[(tetrahydrofuran-2-ylmethyl)amino]imidazo[1,2-a]pyrazin-3-yl}benzamide], the IC50 amounted to 99.2 nM.

For `C/C=C/c1cn2c(-c3ccc(C(=O)NC4CC4)c(F)c3)cnc2c(NCc2ccnn2C)n1` [Example 1-18, N-cyclopropyl-2-fluoro-4-(8-{[(1-methyl-1H-pyrazol-5-yl)methyl]amino}-6-[(1E)-prop-1-en-1-yl]imidazo[1,2-a]pyrazin-3-yl)benzamide], the IC50 was determined as 31.9 nM. For `C=Cc1ccc(-c2cn3c(-c4ccc(C(=O)NC5CC5)cc4)cnc3c(NCC(C)C)n2)cc1` [Example 1-20, N-cyclopropyl-4-{6-(4-ethenylphenyl)-8-[(2-methylpropyl)amino]imidazo[1,2-a]pyrazin-3-yl}benzamide], the concentration for half-maximal inhibition (IC50) came out at 21.4 nM. In the case of `CC(C)(C)OC(=O)NCCCNc1nc(-c2ccncc2)cn2c(-c3ccc(C(=O)NC4CC4)cc3)cnc12` [Example 2-1, tert-butyl [3-({3-[4-(cyclopropylcarbamoyl)phenyl]-6-(pyridin-4-yl)imidazo[1,2-a]pyrazin-8-yl}amino)propyl]carbamate] it was 8.3 nM; in that of `CC(C)(C)OC(=O)NCC#CCCNc1nc(-c2ccccc2)cn2c(-c3ccc(C(=O)NC4CC4)cc3)cnc12` [Example 2-2, tert-Butyl [5-({3-[4-(cyclopropylcarbamoyl)phenyl]-6-phenylimidazo[1,2-a]pyrazin-8-yl}amino)pent-2-yn-1-yl]carbamate], 94.6 nM; in that of `CC(C)(C)OC(=O)NC/C=C/CCNc1nc(-c2ccccc2)cn2c(-c3ccc(C(=O)NC4CC4)cc3)cnc12` [Example 2-3, tert-Butyl [(2E)-5-({3-[4-(cyclopropylcarbamoyl)phenyl]-6-phenylimidazo[1,2-a]pyrazin-8-yl}amino)pent-2-en-1-yl]carbamate], 64 nM.

`CC(C)(C)OC(=O)NC/C=C\CCNc1nc(-c2ccccc2)cn2c(-c3ccc(C(=O)NC4CC4)cc3)cnc12` [Example 2-4, tert-Butyl [(2Z)-5-({3-[4-(cyclopropylcarbamoyl)phenyl]-6-phenylimidazo[1,2-a]pyrazin-8-yl}amino)pent-2-en-1-yl]carbamate]: the IC50 is 12.3 nM. As to `CC(C)CNc1nc(C2CCCCC2)cn2c(-c3ccc(C(=O)NC4CC4)cc3)cnc12` [Example 4-1, 4-{6-cyclohexyl-8-[(2-methylpropyl)amino]imidazo[1,2-a]pyrazin-3-yl}-N-cyclopropylbenzamide], the IC50 was 12.6 nM. In the case of `CC(C)CNc1nc(C2CCCC2)cn2c(-c3ccc(C(=O)NC4CC4)cc3)cnc12` [Example 4-2, 4-{6-cyclopentyl-8-[(2-methylpropyl)amino]imidazo[1,2-a]pyrazin-3-yl}-N-cyclopropylbenzamide] it was 6.1 nM; in that of `CC(C)CNc1nc(/C=C2\CCC(=O)N2C)cn2c(-c3ccc(C(=O)NC4CC4)cc3)cnc12` [Example 5-1, N-cyclopropyl-4-{6-[(E)-(1-methyl-5-oxopyrrolidin-2-ylidene)methyl]-8-[(2-methylpropyl)amino]imidazo[1,2-a]pyrazin-3-yl}benzamide], 1.9 nM; in that of `CC(C)CNc1nc(NC(=O)c2ccccn2)cn2c(-c3ccc(C(=O)NC4CC4)cc3)cnc12` [Example 6-1, N-{3-[4-(cyclopropylcarbamoyl)phenyl]-8-[(2-methylpropyl)amino]imidazo[1,2-a]pyrazin-6-yl}pyridine-2-carboxamide], 10.4 nM.
